Assay results reported in US11123337B2, “4-methylsulfonyl-substituted piperidine urea compounds” (MYOKARDIA, INC., priority 2015, dated 2021).

Each compound was assayed against bovine cardiac myosin (Bos taurus, UniProt Q9BE39) (assay: Myosin activation assay (PK/LDH-coupled ATPase, bovine cardiac myofibrils)). Conditions: AC20 = concentration at which total response is increased by twenty percent.
Format: biochemical
How it was run: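 Values are the concentrations raising the ATPase rate by 20% or 50% over DMSO, from 10-point dose responses fitted with four parameters. Rate is NADH loss at 340 nm via PK/LDH coupling, read 15 min at room temperature, in pH 6.8 PIPES with 50 μM ATP. Bovine cardiac myofibrils were held at pCa ~6 or pCa 10.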

Sequence of bovine cardiac myosin (Q9BE39 whole entry): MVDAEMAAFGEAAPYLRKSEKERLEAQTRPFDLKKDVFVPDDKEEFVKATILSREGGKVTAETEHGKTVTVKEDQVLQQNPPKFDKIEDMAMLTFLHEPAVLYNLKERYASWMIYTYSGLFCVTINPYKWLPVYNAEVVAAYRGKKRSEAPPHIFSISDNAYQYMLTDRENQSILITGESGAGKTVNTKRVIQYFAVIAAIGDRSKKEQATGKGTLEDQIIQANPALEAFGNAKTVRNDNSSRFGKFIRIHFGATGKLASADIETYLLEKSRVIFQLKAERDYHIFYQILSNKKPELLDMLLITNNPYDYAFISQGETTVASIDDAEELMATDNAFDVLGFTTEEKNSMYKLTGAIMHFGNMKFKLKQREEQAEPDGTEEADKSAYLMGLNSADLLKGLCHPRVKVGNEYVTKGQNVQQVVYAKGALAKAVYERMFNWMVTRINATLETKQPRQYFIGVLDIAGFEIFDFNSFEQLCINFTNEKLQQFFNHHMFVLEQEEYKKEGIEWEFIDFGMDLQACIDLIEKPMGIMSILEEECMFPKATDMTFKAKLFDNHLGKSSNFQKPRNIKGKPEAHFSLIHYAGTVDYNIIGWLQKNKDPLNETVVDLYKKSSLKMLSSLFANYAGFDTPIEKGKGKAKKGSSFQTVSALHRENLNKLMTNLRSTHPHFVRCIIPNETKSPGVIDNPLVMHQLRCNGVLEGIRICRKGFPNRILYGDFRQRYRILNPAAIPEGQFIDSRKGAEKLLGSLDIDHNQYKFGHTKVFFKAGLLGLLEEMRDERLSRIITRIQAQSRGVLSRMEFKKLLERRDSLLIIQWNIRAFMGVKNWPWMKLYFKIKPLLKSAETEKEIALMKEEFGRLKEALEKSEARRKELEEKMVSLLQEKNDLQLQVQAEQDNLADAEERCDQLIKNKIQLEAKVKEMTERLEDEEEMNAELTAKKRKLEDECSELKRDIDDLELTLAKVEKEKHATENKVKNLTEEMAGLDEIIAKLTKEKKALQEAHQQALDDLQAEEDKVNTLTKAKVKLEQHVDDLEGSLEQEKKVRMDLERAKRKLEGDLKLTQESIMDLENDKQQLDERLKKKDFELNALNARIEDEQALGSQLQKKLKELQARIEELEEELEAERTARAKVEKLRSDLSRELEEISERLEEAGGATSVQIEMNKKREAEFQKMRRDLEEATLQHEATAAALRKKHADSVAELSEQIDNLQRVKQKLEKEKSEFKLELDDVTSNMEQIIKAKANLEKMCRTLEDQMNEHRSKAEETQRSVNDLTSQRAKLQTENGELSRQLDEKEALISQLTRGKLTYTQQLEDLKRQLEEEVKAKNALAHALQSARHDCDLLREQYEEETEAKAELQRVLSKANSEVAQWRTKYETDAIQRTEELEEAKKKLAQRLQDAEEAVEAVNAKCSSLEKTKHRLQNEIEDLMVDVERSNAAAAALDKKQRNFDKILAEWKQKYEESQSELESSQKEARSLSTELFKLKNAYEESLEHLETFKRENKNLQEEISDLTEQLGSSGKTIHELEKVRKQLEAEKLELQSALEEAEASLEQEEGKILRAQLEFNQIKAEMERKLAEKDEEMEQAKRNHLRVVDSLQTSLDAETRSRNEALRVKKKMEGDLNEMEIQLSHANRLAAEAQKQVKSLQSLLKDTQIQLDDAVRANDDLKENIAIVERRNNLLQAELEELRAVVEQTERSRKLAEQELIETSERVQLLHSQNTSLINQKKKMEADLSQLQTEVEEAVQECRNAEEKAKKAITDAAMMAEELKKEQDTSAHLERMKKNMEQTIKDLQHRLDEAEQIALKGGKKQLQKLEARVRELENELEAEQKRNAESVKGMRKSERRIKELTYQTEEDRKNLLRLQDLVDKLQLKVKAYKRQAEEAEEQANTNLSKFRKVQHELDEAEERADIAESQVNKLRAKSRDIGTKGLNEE
Sequence of bovine cardiac myosin (P85100 whole entry partner): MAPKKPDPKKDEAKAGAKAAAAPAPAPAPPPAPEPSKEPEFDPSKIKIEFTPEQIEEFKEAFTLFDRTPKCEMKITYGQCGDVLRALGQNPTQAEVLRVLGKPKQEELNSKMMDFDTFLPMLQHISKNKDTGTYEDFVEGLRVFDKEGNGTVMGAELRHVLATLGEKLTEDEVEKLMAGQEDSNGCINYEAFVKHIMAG
Sequence of bovine cardiac myosin (Q3SZE5 whole entry partner): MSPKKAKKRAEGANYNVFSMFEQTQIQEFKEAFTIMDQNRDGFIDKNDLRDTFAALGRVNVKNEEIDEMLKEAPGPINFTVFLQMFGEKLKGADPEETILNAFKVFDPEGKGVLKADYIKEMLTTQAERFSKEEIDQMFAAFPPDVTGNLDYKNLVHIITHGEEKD

Structure (SMILES) | Myosin Activation (AC20)
Cn1cc(S(=O)(=O)[C@@](C)(F)C2CCN(C(=O)Nc3cc[nH]n3)CC2)c(C(F)F)n1 [Compound 290, (R)-4-(1-((3-(difluoromethyl)-1-methyl-1H-pyrazol-4-yl)sulfonyl)-1-fluoroethyl)-N-(1H-pyrazol-3-yl)piperidine-1-carboxamide] | ++ (++ represents myosin activation value AC20 from 2 μM-5 μM)
CC(F)(F)C(C)(C1CCN(C(=O)Nc2ccnnc2)CC1)S(=O)(=O)c1cccc(F)c1 (centres unmarked) [Compound 178, 4-(3,3-difluoro-2-((3-fluorophenyl)sulfonyl)butan-2-yl)-N-(pyridazin-4-yl)piperidine-1-carboxamide] | +++ (+++ represents myosin activation value AC20 < 2 μM)
Cc1ccc(NC(=O)N2CCC(C(C)(C)S(=O)(=O)c3cccc(F)c3)CC2)cn1 [Compound 162, 4-(2-((3-fluorophenyl)sulfonyl)propan-2-yl)-N-(6-methylpyridin-3-yl)piperidine-1-carboxamide] | + (+ represents myosin activation value AC20 > 5 μM)
Cn1cc(S(=O)(=O)C(F)(F)C2CCN(C(=O)Nc3ccnnc3)CC2)c(C(F)F)n1 [Compound 83, 4-(((3-(difluoromethyl)-1-methyl-1H-pyrazol-4-yl)sulfonyl)difluoromethyl)-N-(pyridazin-4-yl)piperidine-1-carboxamide] | ++ (++ represents myosin activation value AC20 from 2 μM-5 μM)
Cn1cc(S(=O)(=O)C(F)(F)C2CCN(C(=O)Nc3ccnc(CO)c3)CC2)c(C(F)F)n1 [Compound 101, 4-(((3-(difluoromethyl)-1-methyl-1H-pyrazol-4-yl)sulfonyl)difluoromethyl)-N-(2-(hydroxymethyl)pyridin-4-yl)piperidine-1-carboxamide] | ++ (++ represents myosin activation value AC20 from 2 μM-5 μM)
COc1ccc(Cl)c(S(=O)(=O)C(F)(F)C2CCN(C(=O)Nc3ccnnc3)CC2)c1 [Compound 72, 4-(((2-chloro-5-methoxyphenyl)sulfonyl)difluoromethyl)-N-(pyridazin-4-yl)piperidine-1-carboxamide] | +++ (+++ represents myosin activation value AC20 < 2 μM)
CC(F)(C1CCN(C(=O)Nc2ccnnc2)CC1)S(=O)(=O)c1ccccc1C#N (centres unmarked) [Compound 56, 4-(1-((2-cyanophenyl)sulfonyl)-1-fluoroethyl)-N-(pyridazin-4-yl)piperidine-1-carboxamide] | +++ (+++ represents myosin activation value AC20 < 2 μM)
Cc1ccc(NC(=O)N2CCC([C@@](C)(F)S(=O)(=O)c3cn(C)nc3C(F)F)CC2)cn1 [Compound 258, (S)-4-(1-((3-(difluoromethyl)-1-methyl-1H-pyrazol-4-yl)sulfonyl)-1-fluoroethyl)-N-(6-methylpyridin-3-yl)piperidine-1-carboxamide] | + (+ represents myosin activation value AC20 > 5 μM)
O=C(Nc1ccnnc1)N1CCC(C2(S(=O)(=O)c3ccc(OC(F)(F)F)cc3)CC2)CC1 [Compound 205, N-(pyridazin-4-yl)-4-(1-((4-(trifluoromethoxy)phenyl)sulfonyl)cyclopropyl)piperidine-1-carboxamide] | +++ (+++ represents myosin activation value AC20 < 2 μM)
CC(C)(C1CCN(C(=O)Nc2ccnc(F)c2)CC1)S(=O)(=O)c1cccc(F)c1 [Compound 151, 4-(2-((3-fluorophenyl)sulfonyl)propan-2-yl)-N-(2-fluoropyridin-4-yl)piperidine-1-carboxamide] | ++ (++ represents myosin activation value AC20 from 2 μM-5 μM)
CC(C)(C1CCN(C(=O)Nc2ccon2)CC1)S(=O)(=O)c1cccc(C#N)c1 [Compound 112, 4-(2-((3-cyanophenyl)sulfonyl)propan-2-yl)-N-(isoxazol-3-yl)piperidine-1-carboxamide] | ++ (++ represents myosin activation value AC20 from 2 μM-5 μM)
CC(F)(C1CCN(C(=O)Nc2ccon2)CC1)S(=O)(=O)c1ccc(C(F)(F)F)cc1 (centres unmarked) [Compound 8, 4-(1-Fluoro-1-((4-(trifluoromethyl)phenyl)sulfonyl)ethyl)-N-(isoxazol-3-yl)piperidine-1-carboxamide] | +++ (+++ represents myosin activation value AC20 < 2 μM)
O=C(Nc1ccncc1)N1CCC(C2(S(=O)(=O)c3cccc(F)c3)CCC2)CC1 [Compound 42, 4-(1-((3-fluorophenyl)sulfonyl)cyclobutyl)-N-(pyridin-4-yl)piperidine-1-carboxamide] | +++ (+++ represents myosin activation value AC20 < 2 μM)
Cn1nc(Cl)cc1S(=O)(=O)C(C)(C)C1CCN(C(=O)Nc2ccc(F)nc2)CC1 [Compound 114, 4-(2-((3-chloro-1-methyl-1H-pyrazol-5-yl)sulfonyl)propan-2-yl)-N-(6-fluoropyridin-3-yl)piperidine-1-carboxamide] | +++ (+++ represents myosin activation value AC20 < 2 μM)
Cc1cc(S(=O)(=O)C(C)(C)C2CCN(C(=O)Nc3ccncc3)CC2)n(C)n1 [Compound 186, 4-(2-((1,3-dimethyl-1H-pyrazol-5-yl)sulfonyl)propan-2-yl)-N-(pyridin-4-yl)piperidine-1-carboxamide] | +++ (+++ represents myosin activation value AC20 < 2 μM)
COc1ccc(S(=O)(=O)C(C)(F)C2CCN(C(=O)Nc3ccnnc3)CC2)cn1 (centres unmarked) [Compound 9, 4-(1-fluoro-1-((6-methoxypyridin-3-yl)sulfonyl)ethyl)-N-(pyridazin-4-yl)piperidine-1-carboxamide] | +++ (+++ represents myosin activation value AC20 < 2 μM)
Cn1ncc2c(S(=O)(=O)C(F)(F)C3CCN(C(=O)Nc4ccnnc4)CC3)cccc21 [Compound 66, 4-(difluoro((1-methyl-1H-indazol-4-yl)sulfonyl)methyl)-N-(pyridazin-4-yl)piperidine-1-carboxamide] | ++ (++ represents myosin activation value AC20 from 2 μM-5 μM)
Cn1nc(C(F)(F)F)cc1S(=O)(=O)C(C)(C)C1CCN(C(=O)Nc2ccnc(F)c2)CC1 [Compound 127, N-(2-fluoropyridin-4-yl)-4-(2-((1-methyl-3-(trifluoromethyl)-1H-pyrazol-5-yl)sulfonyl)propan-2-yl)piperidine-1-carboxamide] | ++ (++ represents myosin activation value AC20 from 2 μM-5 μM)
O=C(Nc1ccncc1)N1CCC(CS(=O)(=O)c2cccc(F)c2)CC1 [Compound 33, 4-(((3-fluorophenyl)sulfonyl)methyl)-N-(pyridin-4-yl)piperidine-1-carboxamide] | + (+ represents myosin activation value AC20 > 5 μM)
O=C(Nc1ccnnc1)N1CCC(C(F)(F)S(=O)(=O)c2cccc(C(F)(F)F)c2)CC1 [Compound 49, 4-(difluoro((3-(trifluoromethyl)phenyl)sulfonyl)methyl)-N-(pyridazin-4-yl)piperidine-1-carboxamide] | ++ (++ represents myosin activation value AC20 from 2 μM-5 μM)
CC(F)(C1CCN(C(=O)Nc2ccc(F)nc2)CC1)S(=O)(=O)c1ccc(C#N)cc1 (centres unmarked) [Compound 240, 4-(1-((4-cyanophenyl)sulfonyl)-1-fluoroethyl)-N-(6-fluoropyridin-3-yl)piperidine-1-carboxamide] | ++ (++ represents myosin activation value AC20 from 2 μM-5 μM)
Cn1nc(C(F)(F)F)cc1S(=O)(=O)C(C)(F)C1CCN(C(=O)Nc2ccon2)CC1 (centres unmarked) [Compound 249, 4-(1-fluoro-1-((1-methyl-3-(trifluoromethyl)-1H-pyrazol-5-yl)sulfonyl)ethyl)-N-(isoxazol-3-yl)piperidine-1-carboxamide] | ++ (++ represents myosin activation value AC20 from 2 μM-5 μM)
CC(C)(C1CCN(C(=O)Nc2ccnnc2)CC1)S(=O)(=O)c1ccc(C#N)cc1 [Compound 180, 4-(2-((4-cyanophenyl)sulfonyl)propan-2-yl)-N-(pyridazin-4-yl)piperidine-1-carboxamide] | ++ (++ represents myosin activation value AC20 from 2 μM-5 μM)
O=C(Nc1cncs1)N1CCC(CS(=O)(=O)c2cccc(F)c2)CC1 [Compound 36, 4-(((3-fluorophenyl)sulfonyl)methyl)-N-(thiazol-5-yl)piperidine-1-carboxamide] | + (+ represents myosin activation value AC20 > 5 μM)
Cn1nc(C2CC2)cc1S(=O)(=O)C(F)(F)C1CCN(C(=O)Nc2ccnnc2)CC1 [Compound 24, 4-(((3-Cyclopropyl-1-methyl-1H-pyrazol-5-yl)sulfonyl)difluoromethyl)-N-(pyridazin-4-yl)piperidine-1-carboxamide] | ++ (++ represents myosin activation value AC20 from 2 μM-5 μM)
O=C(Nc1ccnnc1)N1CCC(CS(=O)(=O)c2cccc(F)c2)CC1 [Compound 34, 4-(((3-fluorophenyl)sulfonyl)methyl)-N-(pyridazin-4-yl)piperidine-1-carboxamide] | + (+ represents myosin activation value AC20 > 5 μM)
Cc1cc(NC(=O)N2CCC(C(C)(F)S(=O)(=O)c3cccc(F)c3)CC2)cnn1 (centres unmarked) [Compound 12, 4-(1-Fluoro-1-((3-fluorophenyl)sulfonyl)ethyl)-N-(6-methylpyridazin-4-yl)piperidine-1-carboxamide] | + (+ represents myosin activation value AC20 > 5 μM)
Cn1cc(S(=O)(=O)C(C)(C)C2CCN(C(=O)Nc3ccc(F)nc3)CC2)c(C(F)(F)F)n1 [Compound 111, N-(6-fluoropyridin-3-yl)-4-(2-((1-methyl-3-(trifluoromethyl)-1H-pyrazol-4-yl)sulfonyl)propan-2-yl)piperidine-1-carboxamide] | ++ (++ represents myosin activation value AC20 from 2 μM-5 μM)
[2H]C([2H])([2H])n1cc(S(=O)(=O)[C@](F)(C2CCN(C(=O)Nc3ccon3)CC2)C([2H])([2H])[2H])c(C(F)F)n1 [Compound 305, (S)-4-(1-((3-(difluoromethyl)-1-(methyl-d3)-1H-pyrazol-4-yl)sulfonyl)-1-fluoroethyl-2,2,2-d3)-N-(isoxazol-3-yl)piperidine-1-carboxamide] | + (+ represents myosin activation value AC20 > 5 μM)
